The record followed here is patent publication US9115134B2, “6-triazolopyridazine sulfanyl benzothiazole derivatives as MET inhibitors” (SANOFI, priority 2007, dated 2015).

The target of test [1] is T1, MET (Homo sapiens, UniProt P08581). Kind of test: Test A: HTRF MET assay in 96-well format. The class given is biochemical. Also noted: The His-Tev-MET (956-1390) recombinant DNA in pFastBac (Invitrogen) is transfected into insect cells; His tag (N, cleaved yes); TEV cleavage site (N); made in house; host or cells: SF21 insect cells (baculovirus, pFastBac). To be noted: MET 5 nM, 10 μM ATP. The method, then:
I) Expression and Purification of MET, Cytoplasmic Domain
The His-Tev-MET (956-1390) recombinant DNA in pFastBac (Invitrogen) is transfected into insect cells, and after several viral amplification steps, the final baculovirus stock is tested for the expression of the protein of interest.
After infection for 72 h at 27° C. with the recombinant virus, the SF21 cell cultures are harvested by centrifugation and the cell pellets are stored at −80° C.
The cell pellets are resuspended in lysis buffer (buffer A [50 mM HEPES, pH 7.5, 250 mM NaCl, 10% glycerol, 1 mM TECP]; +cocktail of protease inhibitors, Roche Diagnostics, without EDTA, ref 1873580), stirred at 4° C. until the mixture is homogeneous and then lyzed mechanically using a “Dounce” type apparatus.
After centrifugation, the lysis supernatant is incubated for 2 h at 4° C. with nickel chelate resin (His-Trap 6 Fast Flow™, GE HealthCare). After washing with 20 volumes of buffer A, the suspension is packed into a column, and the proteins are eluted with a gradient of buffer B ([…]+290 mM imidazole).
The fractions containing the protein of interest for the purpose of electrophoretic analysis (SDS PAGE) are combined, concentrated by ultrafiltration (10 kDa cut-off) and injected onto an exclusion chromatography column (Superdex™ 200, GE HealthCare) equilibrated in buffer A.
After enzymatic cleavage of the histidine tag, the protein is reinjected onto a new IMAC nickel chelate chromatography column (His-Trap 6 Fast Flow™, GE HealthCare) equilibrated in buffer A. The fractions eluted with a gradient of buffer B and containing the protein of interest after electrophoresis (SDS PAGE) are finally combined and conserved at −80° C.
For the production of autophosphorylated protein, the previous fractions are incubated for 1 h at ambient temperature after the addition of 2 mM ATP, 2 mM MgCl2, and 4 mM Na3VO4. After the reaction has been stopped with 5 mM of EDTA, the reaction mixture is injected onto a HiPrep desalifying column (GE HealthCare) preequilibrated in buffer A+4 mM Na3VO4, and the fractions containing the protein of interest (SDS PAGE analysis) are combined and stored at −80° C. The degree of phosphorylation is verified by mass spectrometry (LC-MS) and by peptide mapping.
• A) Test A: HTRF MET assay in 96-well format
MET at a final concentration of 5 nM is incubated in a final volume of 50 μl of enzymatic reaction in the presence of the test molecule (for a final concentration range of from 0.17 nM to 10 μM, 3% DMSO final concentration) in 10 mM MOPS buffer, pH 7.4, 1 mM DTT, 0.01% Tween 20. The reaction is initiated with the substrate solution to obtain final concentrations of 1 μg/ml poly-(GAT), 10 μM ATP and 5 mM MgCl2. After incubation for 10 min at ambient temperature, the reaction is stopped with a 30 μl mix so as to obtain a final solution of 50 mM Hepes pH 7.5, 500 mM potassium fluoride, 0.1% BSA and 133 mM EDTA in the presence of 80 ng of streptavidin 61SAXLB Cis-Bio Int. and 18 ng of anti-phosphotyrosine Mab PT66-Europium Cryptate per well. After incubation for 2 hours at ambient temperature, the reading is taken at 2 wavelengths, 620 nm and 665 nm, on a reader for the TRACE/HTRF technique and the % inhibition is calculated from the 665/620 ratios.
Target sequence in this assay (P08581 956-1390): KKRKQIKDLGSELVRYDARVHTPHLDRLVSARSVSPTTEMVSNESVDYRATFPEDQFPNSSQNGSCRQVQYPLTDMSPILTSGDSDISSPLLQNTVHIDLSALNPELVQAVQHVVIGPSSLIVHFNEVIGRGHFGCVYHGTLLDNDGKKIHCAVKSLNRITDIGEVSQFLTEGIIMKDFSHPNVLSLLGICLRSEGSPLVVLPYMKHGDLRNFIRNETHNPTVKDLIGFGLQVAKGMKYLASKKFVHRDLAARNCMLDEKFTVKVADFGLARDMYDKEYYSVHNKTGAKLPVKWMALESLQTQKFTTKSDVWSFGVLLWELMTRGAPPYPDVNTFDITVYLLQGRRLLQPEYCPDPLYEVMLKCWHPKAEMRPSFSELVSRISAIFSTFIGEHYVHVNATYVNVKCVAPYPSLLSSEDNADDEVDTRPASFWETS

Test [2] concerns the target T1, MET. Put plainly: Test B: Inhibition of the autophosphorylation of MET; ELISA technique (pppY1230,1234,1235) in MKN45 cells. The class given is cell-based. To be noted: 1 h treatment, PhosphoMET ELISA. The arrangement: Seed MKN45 cells into 96-well plates (Cell coat BD polylysine) at 20 000 cells/well; endogenous in cells; host or cells: MKN45 cells. As for the experimental part:
Leave to adhere for 24 hours in an incubator.
The cells are treated the day after seeding with the products at 6 concentrations in duplicate for 1 h. At least 3 control wells are treated with the same final amount of DMSO.
Product dilution: Stock at 10 mM in pure DMSO—range from 10 mM to 30 μM with an increment of 3 in pure DMSO—intermediate 1/50 dilutions in culture medium and then removal of 10 μl added directly to the cells (200 μl): final range of 10 000 to 30 nM.
At the end of the incubation, carefully remove the supernatant and rinse with 200 μl of PBS. Next, place 100 μl of lysis buffer directly in the wells on ice and incubate at 4° C. for 30 minutes. Lysis buffer: 10 mM Tris HCl, pH7.4, 100 mM NaCl, 1 mM EDTA, 1 mM EGTA, 1% Triton X-100, 10% glycerol, 0.1% SDS, 0.5% deoxycholate, 20 mM NaF, 2 mM Na3VO4, 1 mM PMSF and cocktail of antiproteases.
The 100 μl of lysates are transferred into a V-bottomed polypropylene plate and the ELISA is performed immediately, or the plate is frozen at −80° C. • b) PhosphoMET ELISA BioSource Kit KH00281
Into each well of the kit plate, add 70 μl of kit dilution buffer+30 μL of cell lysate or 30 μl of lysis buffer for the blanks. Incubate for 2 h with gentle agitation at ambient temperature.
Rinse the wells 4 times with 400 μl of kit washing buffer. Incubate with 100 μl of anti-phospho MET antibody for 1 hour at ambient temperature.
Rinse the wells 4 times with 400 μl of kit washing buffer. Incubate with 100 μl of anti-rabbit HRP antibody for 30 minutes at ambient temperature (except for the wells of chromogen alone).
Rinse the wells 4 times with 400 μl of kit washing buffer. Introduce 100 μL of chromogen and incubate for 30 minutes in the dark at ambient temperature.
(§1) Stop the reaction with 100 μl of stop solution. Read without delay at […], 0.1 second on Wallac Victor plate reader. • C) Test C: Measurement of cell proliferation by ^14c-thymidine pulse
For orientation: In an ELISA, binding on a coated surface is turned into a signal by an enzyme label.
Target sequence in this assay (P08581 25-1390): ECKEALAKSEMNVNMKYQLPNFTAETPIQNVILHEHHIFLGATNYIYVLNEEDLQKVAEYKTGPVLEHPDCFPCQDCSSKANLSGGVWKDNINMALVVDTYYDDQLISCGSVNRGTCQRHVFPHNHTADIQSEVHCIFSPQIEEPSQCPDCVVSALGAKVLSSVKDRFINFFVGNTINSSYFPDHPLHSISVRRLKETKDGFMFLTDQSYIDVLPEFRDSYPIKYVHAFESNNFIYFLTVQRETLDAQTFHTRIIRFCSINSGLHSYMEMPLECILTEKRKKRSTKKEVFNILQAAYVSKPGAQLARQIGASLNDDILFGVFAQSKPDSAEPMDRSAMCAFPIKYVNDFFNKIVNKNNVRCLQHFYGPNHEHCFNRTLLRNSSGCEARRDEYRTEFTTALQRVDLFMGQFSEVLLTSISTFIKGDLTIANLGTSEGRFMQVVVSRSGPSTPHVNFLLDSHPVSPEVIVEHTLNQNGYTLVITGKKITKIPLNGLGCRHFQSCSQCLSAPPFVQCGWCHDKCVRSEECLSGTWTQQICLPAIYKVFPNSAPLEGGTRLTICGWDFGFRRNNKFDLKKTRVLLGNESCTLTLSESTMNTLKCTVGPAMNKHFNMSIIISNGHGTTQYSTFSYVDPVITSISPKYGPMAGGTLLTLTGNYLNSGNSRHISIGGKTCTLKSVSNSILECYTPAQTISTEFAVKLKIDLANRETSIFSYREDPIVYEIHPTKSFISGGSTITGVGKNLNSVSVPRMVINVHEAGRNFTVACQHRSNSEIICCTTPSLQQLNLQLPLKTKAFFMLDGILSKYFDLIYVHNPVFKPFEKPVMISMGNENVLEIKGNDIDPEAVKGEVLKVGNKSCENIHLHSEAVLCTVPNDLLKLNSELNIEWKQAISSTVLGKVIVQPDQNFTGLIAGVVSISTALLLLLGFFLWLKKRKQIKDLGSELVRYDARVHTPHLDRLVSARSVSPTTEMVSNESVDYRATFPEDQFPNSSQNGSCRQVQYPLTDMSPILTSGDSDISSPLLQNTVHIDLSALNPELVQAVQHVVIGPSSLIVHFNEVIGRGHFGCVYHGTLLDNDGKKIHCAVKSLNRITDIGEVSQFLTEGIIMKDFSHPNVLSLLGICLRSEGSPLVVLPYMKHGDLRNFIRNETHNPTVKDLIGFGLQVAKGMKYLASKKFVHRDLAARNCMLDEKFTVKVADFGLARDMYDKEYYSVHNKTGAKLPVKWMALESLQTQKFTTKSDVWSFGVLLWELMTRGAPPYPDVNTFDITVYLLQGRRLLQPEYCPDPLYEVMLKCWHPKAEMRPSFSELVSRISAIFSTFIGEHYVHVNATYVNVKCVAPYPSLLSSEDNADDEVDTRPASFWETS

Test [3] relates to HCT116 cells, MKN45 cells. Put plainly: Test C: Measurement of cell proliferation by 14C-thymidine pulse. The class given is cell-based. To be noted: 14C-thymidine incorporation, 96 h of treatment; cell line not given. The method, then:
as §1
The cells are seeded into Cytostar 96-well plates in 180 μl for 4 hours at 37° C. and 5% CO2: HCT116 cells at a rate of 2500 cells per well in DMEM medium+10% foetal calf serum+1% L-glutamine and MKN45 cells at a rate of 7500 cells per well in RPMI medium+10% foetal calf serum+1% L-glutamine. After these 4 hours of incubation, the products are added in 10 μl as a 20-fold concentrated solution according to the dilution method mentioned for the ELISA. The products are tested at 10 concentrations in duplicate from 10 000 nM to 0.3 nM with an increment of 3.
After treatment for 72 h, add 10 μl of ^14C-thymidine at 10 μCi/ml to obtain 0.1 μCi per well. The ^14C-thymidine incorporation is measured on a Micro-Beta machine (Perkin-Elmer) after 24 hours of pulse and 96 h of treatment.
All the steps of the assay are automated on BIOMEK 2000 or TECAN stations.
(In general: Incorporation of labelled thymidine or its analogues reports DNA synthesis.)

Molecules are shown by their SMILES.

As for `COC(=O)Nc1nc2ccc(Sc3nnc4ccc(-c5ccc(F)cc5)nn34)cc2s1` [Example 1, Methyl (6-{[6-(4-fluorophenyl)[1,2,4]triazolo[4,3-b]pyridazin-3-yl]sulphanyl}-1,3-benzothiazol-2-yl)carbamate], the concentration for half-maximal inhibition (IC50) (as a rule, the concentration that gives 50% inhibition) on MET [1] was below 100 nM; against MET [2], below 100 nM; in test [3], below 1000 nM.

As for `CC(C)(C)OC(=O)Nc1nc2ccc(Sc3nnc4ccc(-c5ccc(F)cc5)nn34)cc2s1` [Example 2, 1,1-Dimethylethyl (6-{[6-(4-fluorophenyl)[1,2,4]triazolo[4,3-b]pyridazin-3-yl]sulphanyl}-1,3-benzothiazol-2-yl)carbamate], the IC50 at MET [1] is below 100 nM; at MET [2], 100 to 500 nM; in test [3], below 1000 nM.

Turning to `Nc1nc2ccc(Sc3nnc4ccc(-c5ccc(F)cc5)nn34)cc2s1` [Example 3, 6-{[6-(4-Fluorophenyl)[1,2,4]triazolo[4,3-b]pyridazin-3-yl]sulphanyl}-1,3-benzothiazol-2-amine], the IC50 on MET [1] was below 100 nM; on MET [2], below 100 nM; in test [3], below 1000 nM.

With `COC(=O)Nc1nc2ccc(Sc3nnc4ccc(-c5ccc(F)cc5)nn34)cc2[nH]1` [Example 4, Methyl (6-{[6-(4-fluorophenyl)[1,2,4]triazolo[4,3-b]pyridazin-3-yl]sulphanyl}-1H-benzimidazol-2-yl)carbamate], the results for the IC50 (at MET [1]; against MET [2]; in test [3]) were below 100 nM, below 100 nM and below 1000 nM, respectively.

Regarding `COC(=O)Nc1nc2ccc(Sc3nnc4n3N=C(c3ccc(F)cc3)CC4)cc2[nH]1` [Example 5, Methyl (6-{[6-(4-fluorophenyl)-7,8-dihydro[1,2,4]triazolo[4,3-b]pyridazin-3-yl]sulphanyl}-1H-benzimidazol-2-yl)carbamate], the IC50 is below 100 nM on MET [1], 100 to 500 nM on MET [2] and below 1000 nM in test [3].

Take `O=C(NCCN1CCOCC1)Nc1nc2ccc(Sc3nnc4ccc(-c5ccc(F)cc5)nn34)cc2[nH]1` [Example 6, 1-(6-{[6-(4-Fluorophenyl)[1,2,4]triazolo[4,3-b]pyridazin-3-yl]sulphanyl}-1H-benzimidazol-2-yl)-3-(2-morpholin-4-ylethyl)urea]: the figures for the IC50 (at MET [1]; on MET [2]; in test [3]) were below 100 nM, below 100 nM and below 1000 nM, respectively.

For the molecule `Nc1nc2ccc(Sc3nnc4ccc(-c5ccc(F)cc5)nn34)cc2[nH]1` [Example 7, 6-{[6-(4-Fluorophenyl)[1,2,4]triazolo[4,3-b]pyridazin-3-yl]sulphanyl}-1H-benzimidazol-2-amine], the figures for the IC50 (on MET [1]; at MET [2]; in test [3]) were below 100 nM, 100 to 500 nM and below 1000 nM, respectively.

As for `Nc1nc2ccc(Sc3ccc(C4=Nn5c(nnc5Sc5ccc6nc(N)sc6c5)CC4)cc3)cc2s1` [Example 8, 6-[(4-{3-[(2-amino-1,3-benzothiazol-6-yl)sulphanyl]-7,8-dihydro[1,2,4]triazolo-[4,3-b]pyridazin-6-yl}phenyl)sulphanyl]-1,3-benzothiazol-2-amine], the IC50 on MET [1] was below 100 nM; at MET [2], above 500 nM; in test [3] it was below 10000 nM.

On to `O=C(NCCN1CCOCC1)Nc1nc2ccc(Sc3nnc4ccc(-c5ccc(F)cc5)nn34)cc2s1` [Example 9, 1-(6-{[6-(4-Fluorophenyl)[1,2,4]triazolo[4,3-b]pyridazin-3-yl]sulphanyl}-1,3-benzothiazol-2-yl)-3-(2-morpholin-4-ylethyl)urea], for which the IC50 was below 100 nM on MET [1], below 100 nM against MET [2] and below 1000 nM in test [3].

`O=C(NCCN1CCOCC1)Nc1nc2ccc(Sc3nnc4cccnn34)cc2s1` [Example 10, 1-(2-Morpholin-4-ylethyl)-3-[6-([1,2,4]triazolo[4,3-b]pyridazin-3-ylsulphanyl)-1,3-benzothiazol-2-yl]urea]: the IC50 at MET [1] is below 100 nM; against MET [2], below 100 nM; in test [3] it was below 1000 nM.

For the molecule `C[C@@H]1CN(CCNC(=O)Nc2nc3ccc(Sc4nnc5ccc(-c6ccc(F)cc6)nn45)cc3s2)C[C@H](C)O1` [Example 11, 1-{2-[(2R,6S)-2,6-dimethylmorpholin-4-yl]ethyl}-3-(6-{[6-(4-fluorophenyl)-[1,2,4]triazolo[4,3-b]pyridazin-3-yl]sulphanyl}-1,3-benzothiazol-2-yl)urea], the IC50 is below 100 nM on MET [1], below 100 nM against MET [2] and below 1000 nM in test [3].

Take `O=C(Nc1nc2ccc(Sc3nnc4ccc(-c5ccc(F)cc5)nn34)cc2s1)OCCN1CCOCC1` [Example 12, 2-Morpholin-4-ylethyl (6-{[6-(4-fluorophenyl)[1,2,4]triazolo[4,3-b]pyridazin-3-yl]sulphanyl}-1,3-benzothiazol-2-yl)carbamate]: the IC50 on MET [1] was below 100 nM; on MET [2], below 100 nM; in test [3], below 1000 nM.
